Results from patent publication US10919941B2, “Functional lipid constructs” (KODE BIOTECH LIMITED, priority 2007, dated 2021).
No end group written: not given here. *: point of attachment. For = O=C*

Columns and labels:
[1] = target: Miltenberger antigen MiIII on natural human red cells (human) (UniProt P02724); experiment: saline phase; cell R1Rz 11291347
[2] = target: Miltenberger antigen MiIII on natural human red cells (human) (UniProt P02724); experiment: AHG; cell Abtectcell III 8245009
[3] = target: Miltenberger antigen Mi?X on natural human red cells (human); experiment: BioVue AHG; cell C.BR
[4] = target: Miltenberger antigen MiIII on natural human red cells (human) (UniProt P02724); experiment: AHG; cell R2R2 11297161
[5] = target: Miltenberger antigen MiIII on natural human red cells (human) (UniProt P02724); experiment: BioVue AHG; cell 11297161
[6] = target: Miltenberger antigen MiIII on natural human red cells (human) (UniProt P02724); experiment: AHG; cell R1Rz 11291347
[7] = target: Miltenberger antigen Vw on natural human red cells (human) (UniProt P02724); experiment: BioVue AHG; cell 9422184
[8] = target: Miltenberger antigen MiIII on natural human red cells (human) (UniProt P02724); experiment: saline phase; cell R2R2 11297161
[9] = test system: Miltenberger antibody positive samples and false positive antibody negative samples; experiment: Reactivity of RBCs modified with capped peptide-lipid constructs in alternative configurations; assay type: cell-based; design: key: 0 or ‘−’ no agglutination; 0 or ‘−’ no agglutination; 1+ or 3=very weak agglutination; 1+ or 3=very weak agglutination; 2+ or 5=weak agglutination; 2+ or 5=weak agglutination; 3+ or 8=moderate strong agglutination; 3+ or 8=moderate strong agglutination; 4+ or 10/12=strong agglutination; 4+ or 10/12=strong agglutination; 4+ or 10/12=strong agglutination; conditions: capped construct 50 μg/mL, 2 hours at 37° C.
Protocol: Peptide-lipid constructs comprising CMG(2) and the following peptides were prepared:
The termini of the peptides were formylated and amidated to provide “capped” peptides. The reactivity of random Miltenberger antibody positive samples and three false positive antibody negative samples were tested against RBCs modified to incorporate these “capped” peptide-lipid constructs (50 μg/mL, 2 hours at 37° C.).
The reactivity was assessed and recorded in Table 24. […] However, linkage of the peptide via a Cys residue located at the amino terminus (as opposed to the carboxy terminus) appeared to reduce the likelihood of reactivity with the false-positive antibody negative samples and improve reactivity with the known antibody positive samples.

[10] = test system: Miltenberger Antibody Positive Panel; experiment: Reactivity of modified RBCs against the Miltenberger Antibody Positive Panel; assay type: cell-based, human; design: key to score vs panel 15 TAP2 / score vs panel 4 T7202 / score vs panel 8 T5896 / score vs panel 2 T217 / score vs panel 3 T165 / score vs panel 14 TAP1 / score vs panel 10 Mia / score vs panel 11 Mur / score vs panel 12 Gam / score vs panel 6 T6025 / score vs panel 7 T8445 / score vs panel 9 MIII / score vs panel 13 BoxH / reactivity with Panel Serum #7 (T8445) / agglutination score, Panel Serum #7 (T8445): 0 or ‘−’ no agglutination; 0 or ‘−’ no agglutination; 1+ or 3=very weak agglutination; 1+ or 3=very weak agglutination; 2+ or 5=weak agglutination; 2+ or 5=weak agglutination; 3+ or 8=moderate strong agglutination; 3+ or 8=moderate strong agglutination; 4+ or 10/12=strong agglutination; 4+ or 10/12=strong agglutination; 4+ or 10/12=strong agglutination; conditions: for score vs panel 2 T217 / score vs panel 3 T165 / score vs panel 4 T7202 / score vs panel 8 T5896 / score vs panel 14 TAP1 / score vs panel 15 TAP2: Table 8, construct 50 μg/ml
antibody negative serums = experiment: False positive reactions of modified RBCs with antibody negative serums/plasma; assay type: cell-based, human; design: key to Reaction score BioVue AHG, PAC samples 1-46, 49, 50, 52, 53 / Reaction score BioVue AHG, PAC sample 47 / Reaction score BioVue AHG, PAC sample 48 / Reaction score BioVue AHG, PAC sample 51 / agglutination score, T series serum 2 / agglutination score, T series serum 42 / agglutination score, T series serum 63 / agglutination score, T series serum 62 / agglutination score, T series serum 7 / agglutination score, T series serum 20 / agglutination score, T series serum 48 / agglutination score, T series serum 22 / agglutination score, T series serum 39 / agglutination score, T series serum 23 / agglutination score, T series serum 30 / agglutination score, T series serum 4 / agglutination score, T series serum 31 / agglutination score, T series serum 44 / agglutination score, T series serum 61 / agglutination score, T series serum 18 / agglutination score, T series serum 21 / agglutination score, T series serum 28 / agglutination score, T series serum 55 / agglutination score, false positive serum T18 / agglutination score, false positive serum T21 / agglutination score, false positive serum T28 / agglutination score, false positive serum T55 / agglutination score, false positive serum T78 / agglutination score, false positive serum T92: 0 or ‘−’ no agglutination; 0 or ‘−’ no agglutination; 1+ or 3=very weak agglutination; 1+ or 3=very weak agglutination; 2+ or 5=weak agglutination; 2+ or 5=weak agglutination; 3+ or 8=moderate strong agglutination; 3+ or 8=moderate strong agglutination; 4+ or 10/12=strong agglutination; 4+ or 10/12=strong agglutination; 4+ or 10/12=strong agglutination; conditions: for Reaction score BioVue AHG, PAC sample 47 / Reaction score BioVue AHG, PAC sample 48 / Reaction score BioVue AHG, PAC sample 51 / Reaction score BioVue AHG, PAC samples 1-46, 49, 50, 52, 53: blood donor plasma, construct 50 μg/ml (2 hours, 37° C.); for % False Positives: panel of blood donor plasma samples (PAC), BioVue AHG, construct 50 μg/ml
[11] = test system: TAP1 serum (Taiwan Miltenberger antibody positive sample); experiment: Anti-MUT serum (TAP1) reactivity of modified RBCs (saline and AHG); assay type: cell-based, human; design: key: 0 or ‘−’ no agglutination; 0 or ‘−’ no agglutination; 1+ or 3=very weak agglutination; 1+ or 3=very weak agglutination; 2+ or 5=weak agglutination; 2+ or 5=weak agglutination; 3+ or 8=moderate strong agglutination; 3+ or 8=moderate strong agglutination; 4+ or 10/12=strong agglutination; 4+ or 10/12=strong agglutination; 4+ or 10/12=strong agglutination; conditions: construct 50 μg/ml (2 hours, 37° C.)
Protocol: (§1) The suspensions are either: • 1. incubated for 2 hours at 37° C. before being washed and suspended in a cell medium for serological analysis at a concentration of 0.8 to 3% (Method 1); or • 2. incubated for 3 to 4 hours at room temperature (circa 25° C.) followed by 18 hours at 4° C. before being washed and suspended in a cell medium for serological analysis at a concentration of 0.8 to 3% (Method 2).
(§2) Serological reactions are graded or scored by either of two established systems (0 or ‘−’ no agglutination, 1+ or 3=very weak agglutination, 2+ or 5=weak agglutination, 3+ or 8=moderate strong agglutination, 4+ or 10/12=strong agglutination)

[12] = test system: Miltenberger antibody positive sera; experiment: BioVue AHG card column agglutination serology of modified red blood cells; assay type: cell-based, human; design: key: 0 or ‘−’ no agglutination; 0 or ‘−’ no agglutination; 1+ or 3=very weak agglutination; 1+ or 3=very weak agglutination; 2+ or 5=weak agglutination; 2+ or 5=weak agglutination; 3+ or 8=moderate strong agglutination; 3+ or 8=moderate strong agglutination; 4+ or 10/12=strong agglutination; 4+ or 10/12=strong agglutination; 4+ or 10/12=strong agglutination; conditions: construct 50 μg/ml
Protocol: Red blood cells are modified by mixing 1 part by volume of washed packed red blood cells with 1 part by volume of peptide-lipid construct dispersed at a concentration of 10 to 1000 pg/ml in cell media (Celpresol™).
as §1, §2
Serological platforms used are Tube (addition of reagents and reactants into plastic or glass serology tubes and after appropriate incubations, washing and centrifugation observing reactions macroscopically by eye and a 10× magnification eyepiece and scoring) and BioVue™ (addition of reactants into cassettes containing beads (including some reactants) and after appropriate incubations and centrifugation observing the reaction patterns trapped within the Gel matrix). BioVue is the serological column agglutination platform of Ortho-Clinical Diagnostics. Diamed is the serological column agglutination platform of Diamed AG.

[13] = 25° C.; cited from earlier work

Compound	agglutination score, antibody positive serum 55 [9]	agglutination score, antibody positive serum 61 [9]	agglutination score, antibody positive serum 65 [9]	agglutination score, antibody positive serum 67 [9]	agglutination score, antibody positive serum 68 [9]	agglutination score, antibody positive serum 71 [9]	agglutination score, antibody positive serum 942-433813-3 [9]	agglutination score, false-positive antibody negative serum PAC302 [9]	agglutination score, false-positive antibody negative serum PAC332 [9]	agglutination score, false-positive antibody negative serum PAC340 [9]	score vs panel 2 T217 [10]	score vs panel 3 T165 [10]	score vs panel 4 T7202 [10]	score vs panel 8 T5896 [10]	score vs panel 14 TAP1 [10]	score vs panel 15 TAP2 [10]	Reaction score BioVue AHG, PAC sample 47 (antibody negative serums)	Reaction score BioVue AHG, PAC sample 48 (antibody negative serums)	Reaction score BioVue AHG, PAC sample 51 (antibody negative serums)	Reaction score BioVue AHG, PAC samples 1-46, 49, 50, 52, 53 (antibody negative serums)	other results
TAP1																					agglutination score [1]: 8; agglutination score [2]: 10; agglutination score [3]: 12; agglutination score [4]: 10; agglutination score [5]: 10; agglutination score [6]: 10; agglutination score [7]: 5; agglutination score [8]: 8
M44: capped peptide-lipid construct comprising CMG(2) and ThrTyrProAlaHisThrAlaAsnGluCys (For-TYPAHTANEC-NH2; also: capped peptide-lipid construct comprising CMG(2))	8	8	10	8	0	10	0	5	12	5											
M34: DOPE peptide-lipid construct: MUTK peptide SSQTNDKHKR, leader c, spacer CMG(2) (SSQTNDKHKRC; also: DOPE peptide-lipid construct via leader Cys, spacer CMG(2))											0	0	0	0	3	0	0	3	5	0	% False Positives (antibody negative serums): 3.8%; Reactivity with anti-MUT serum TAP1 [11]: 5; BioVue score vs TAP1 [12]: 5; BioVue score vs positive sample 2 T217 (T) [12]: 0; BioVue score vs positive sample 3 T165 (Mur) [12]: 0; BioVue score vs positive sample 4 T7202 (M) [12]: 0; BioVue score vs positive sample 8 T5896 (M + K + Mur) [12]: 0
M36: DOPE peptide-lipid construct: MUTK peptide SQTNDKHKRDT, leader c, spacer CMG(2) (SQTNDKHKRDTC; also: DOPE peptide-lipid construct via leader Cys, spacer CMG(2))											0	0	0	0	8	0	3	5	0	0	sensitivity and specificity towards a human polyclonal antibody panel compared with sequence 1 ([10]; MUT peptides, prior art sequence 1): superior sensitivity and specificity; % False Positives (antibody negative serums): 3.8%; Reactivity with anti-MUT serum TAP1 [11]: 8; BioVue score vs TAP1 [12]: 8; BioVue score vs positive sample 2 T217 (T) [12]: 0; BioVue score vs positive sample 3 T165 (Mur) [12]: 0; BioVue score vs positive sample 4 T7202 (M) [12]: 0; BioVue score vs positive sample 8 T5896 (M + K + Mur) [12]: 0
O=C(O)CCCC[C@@H]1SC[C@@H]2NC(=O)N[C@@H]21 [Biotin, [3aS-(3aα, 4β, 6aα)]-hexahydro-2-oxo-1H-thieno[3,4-d]imidazole-4-pentanoic acid]																					solubility in 95% alcohol [13]: approximately 80 mg/100 mL; solubility in water [13]: approximately 22 mg/100 mL
M45: capped peptide-lipid construct comprising CMG(2) and CysThrTyrProAlaHisThrAlaAsnGlu (For-CTYPAHTANE-NH2; also: capped peptide-lipid construct comprising CMG(2))	8	5	8	10	0	10	5	0	0	0											
